Laboratory results as given in US9073916B2, “Prodrug forms of kinase inhibitors and their use in therapy” (AUCKLAND UNISERVICES LIMITED, priority 2009, dated 2015).
Where two headings read alike, the source gives them in different places.

Assays:
SKOV3 cells = test: Cellular growth inhibition (sulforhodamine B); type: cell-based, Human; conditions: Table 9; for IC50: Homo sapiens, SK-OV-3
[1] = Hypoxia-selective reduction of prodrug 20 in cell free media; type: in vitro ADME; conditions: cell free media containing 5% fetal calf serum, hypoxic
erbB1^T790M = erbB1^T790M (Homo sapiens, UniProt P00533, T790M); test: Isolated enzyme inhibition (Invitrogen Z′-LYTE kinase assay); type: biochemical; conditions: 10 μM ATP, duplicate
Chain of erbB1^T790M (P00533 25-1210 T790M): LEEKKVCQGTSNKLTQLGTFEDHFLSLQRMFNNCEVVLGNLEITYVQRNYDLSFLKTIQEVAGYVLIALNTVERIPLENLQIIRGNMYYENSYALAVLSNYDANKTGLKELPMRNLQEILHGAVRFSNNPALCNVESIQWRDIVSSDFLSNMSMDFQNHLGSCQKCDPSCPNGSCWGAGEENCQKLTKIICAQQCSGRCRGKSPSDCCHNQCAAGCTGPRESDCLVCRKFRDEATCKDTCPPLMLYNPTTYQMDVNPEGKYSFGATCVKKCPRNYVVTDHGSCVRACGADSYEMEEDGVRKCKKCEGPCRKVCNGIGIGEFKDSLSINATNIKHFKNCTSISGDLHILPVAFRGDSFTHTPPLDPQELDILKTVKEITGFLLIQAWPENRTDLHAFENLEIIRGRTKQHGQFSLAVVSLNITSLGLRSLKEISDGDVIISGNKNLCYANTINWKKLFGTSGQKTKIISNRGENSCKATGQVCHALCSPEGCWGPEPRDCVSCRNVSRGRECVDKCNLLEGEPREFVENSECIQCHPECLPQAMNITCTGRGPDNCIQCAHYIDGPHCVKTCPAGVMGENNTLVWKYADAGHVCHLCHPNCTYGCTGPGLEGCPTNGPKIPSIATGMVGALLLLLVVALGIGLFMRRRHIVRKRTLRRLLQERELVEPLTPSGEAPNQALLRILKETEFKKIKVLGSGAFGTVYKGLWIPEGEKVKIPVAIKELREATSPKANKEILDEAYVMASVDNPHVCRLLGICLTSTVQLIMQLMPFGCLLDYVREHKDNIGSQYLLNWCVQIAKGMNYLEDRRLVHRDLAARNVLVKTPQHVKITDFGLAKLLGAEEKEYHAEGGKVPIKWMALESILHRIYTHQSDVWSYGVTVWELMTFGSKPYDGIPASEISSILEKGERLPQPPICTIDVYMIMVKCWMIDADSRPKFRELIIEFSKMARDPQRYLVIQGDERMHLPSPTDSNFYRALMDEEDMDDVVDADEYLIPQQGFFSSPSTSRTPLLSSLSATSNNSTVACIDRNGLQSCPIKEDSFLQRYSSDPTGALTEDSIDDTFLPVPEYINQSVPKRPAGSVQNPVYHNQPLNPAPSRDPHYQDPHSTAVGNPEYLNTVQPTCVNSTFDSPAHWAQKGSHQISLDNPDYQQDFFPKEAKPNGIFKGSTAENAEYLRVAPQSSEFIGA

Compound	IC50 (SKOV3 cells; 24 hour exposure oxic, read-out: Cellular Growth Inhibition IC50 SKOV3 Oxic)	IC50 (SKOV3 cells; first 4 hours anoxic, read-out: Cellular Growth Inhibition IC50 SKOV3 Anoxic)	SKOV3 Deact. (SKOV3 cells)	SKOV3 HCR (SKOV3 cells)	rate of release of inhibitor 11 [1]	IC50 (erbB1^T790M)
Cn1cnc([N+](=O)[O-])c1C[N+](C)(C)C/C=C/C(=O)Nc1cc2c(Nc3ccc(F)c(Br)c3)ncnc2cn1 [Compound 42, (2E)-4-{[4-(3-bromo-4-fluoroanilino)pyrido[3,4-d]pyrimidin-6-yl]amino}-N,N-dimethyl-N-[(1-methyl-4-nitro-1H-imidazol-5-yl)methyl]-4-oxo-2-buten-1-ammonium bromide]	35500 nM	2850 nM	42 fold	20.3 fold	–	–
Cn1cnc([N+](=O)[O-])c1C[N+](C)(C)C/C=C/C(=O)Nc1ccc2ncnc(Nc3cccc(Br)c3)c2c1.[Br-] [Compound 20, (2E)-4-{[4-(3-bromoanilino)-6-quinazolinyl]amino}-N,N-dimethyl-N-[(1-methyl-4-nitro-1H-imidazol-5-yl)methyl]-4-oxo-2-buten-1-ammonium bromide]	–	–	–	–	62 pmol/h	594 nM
